Values of other authors in US20090162921A1 (priority 2005, published 2009).

Tested on: mouse
Conditions: in vivo; for LD50: po

Row | Compound | LD50 (50% of the fatal dose in mouse) [mg/kg] | LD50
1 | C[As+](C)(C)CC(=O)[O-] [AB, arsenobetaine] | 10000 | 10000
2 | arsenic acid [As(V)] | 14 to 18 | 14 to 18 mg/kg
